From the supplement of paper PMC10307832

What was measured:
Assay in all cases: relative viability (nuclei count vs DMSO), 5 days (fraction); higher = more cells survive
Ispinesib + Bortezomib = compound: Cc1ccc(C(=O)N(CCCN)[C@@H](c2nc3cc(Cl)ccc3c(=O)n2Cc2ccccc2)C(C)C)cc1 [Ispinesib] + CC(C)C[C@H](NC(=O)[C@H](Cc1ccccc1)NC(=O)c1cnccn1)B(O)O [Bortezomib] (partner 0.002 µM)
Outline: (§1)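 Five library-drug doses in √10 steps were combined with a fixed anchor-drug dose, or a single drug was given alone, by pin tool to lung cancer cell lines in 1536-well plates the day after seeding. Nuclei were stained and counted after 5 days. Relative viability is the nuclei count in treated wells over that in vehicle wells, taken as the median of duplicate plates.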

Linsitinib + Luminespib = compound: C[C@]1(O)C[C@@H](c2nc(-c3ccc4ccc(-c5ccccc5)nc4c3)c3c(N)nccn32)C1 [Linsitinib] + CCNC(=O)c1noc(-c2cc(C(C)C)c(O)cc2O)c1-c1ccc(CN2CCOCC2)cc1 [Luminespib] (partner 0.01 µM)
Outline: as §1

Ispinesib + Lapatinib = compound: Cc1ccc(C(=O)N(CCCN)[C@@H](c2nc3cc(Cl)ccc3c(=O)n2Cc2ccccc2)C(C)C)cc1 [Ispinesib] + CS(=O)(=O)CCNCc1ccc(-c2ccc3ncnc(Nc4ccc(OCc5cccc(F)c5)c(Cl)c4)c3c2)o1 [Lapatinib] (partner 2 µM)
Outline: as §1

Linsitinib + AZD7762 = compound: C[C@]1(O)C[C@@H](c2nc(-c3ccc4ccc(-c5ccccc5)nc4c3)c3c(N)nccn32)C1 [Linsitinib] + NC(=O)Nc1cc(-c2cccc(F)c2)sc1C(=O)N[C@H]1CCCNC1 [AZD7762] (partner 0.2 µM)
Outline: as §1

Cell Line | relative viability (Ispinesib + Bortezomib; first compound 0.001 µM) | relative viability (Ispinesib + Bortezomib; first compound 0.003162 µM) | relative viability (Ispinesib + Bortezomib; first compound 0.01 µM) | relative viability (Ispinesib + Bortezomib; first compound 0.03162 µM) | relative viability (Ispinesib + Bortezomib; first compound 0.1 µM) | relative viability (Linsitinib + Luminespib; first compound 0.01 µM) | relative viability (Linsitinib + Luminespib; first compound 0.03162 µM) | relative viability (Linsitinib + Luminespib; first compound 0.1 µM) | relative viability (Linsitinib + Luminespib; first compound 0.3162 µM) | relative viability (Linsitinib + Luminespib; first compound 1 µM) | relative viability (Ispinesib + Lapatinib; first compound 0.001 µM) | relative viability (Ispinesib + Lapatinib; first compound 0.003162 µM) | relative viability (Ispinesib + Lapatinib; first compound 0.01 µM) | relative viability (Ispinesib + Lapatinib; first compound 0.03162 µM) | relative viability (Ispinesib + Lapatinib; first compound 0.1 µM) | relative viability (Linsitinib + AZD7762; first compound 0.01 µM) | relative viability (Linsitinib + AZD7762; first compound 0.03162 µM) | relative viability (Linsitinib + AZD7762; first compound 0.1 µM) | relative viability (Linsitinib + AZD7762; first compound 0.3162 µM) | relative viability (Linsitinib + AZD7762; first compound 1 µM)
NCI-H661 | 0.821 | 0.78 | 0.688 | 0.771 | 0.665 | 0.924 | 1.05 | 0.948 | 0.945 | 1.01 | 0.52 | 0.451 | 0.444 | 0.406 | 0.439 |  |  |  |  | 
NCI-H520 | 0.568 | 0.706 | 0.541 | 0.218 | 0.242 | 0.21 | 0.195 | 0.241 |  | 0.208 | 0.996 | 0.825 | 0.322 | 0.217 | 0.261 |  |  |  |  | 
NCI-H1563 | 0.903 | 0.815 | 0.929 | 0.687 | 0.669 | 0.599 | 0.607 | 0.51 | 0.486 | 0.525 | 1.03 | 0.956 | 0.928 | 0.686 | 0.624 |  |  |  |  | 
NCI-H2342 |  |  |  |  |  | 0.662 | 0.754 | 0.702 | 0.714 | 0.536 |  |  |  |  |  | 0.405 | 0.544 | 0.526 | 0.454 | 0.414
NCI-H1623 |  |  |  |  |  | 0.43 | 0.483 | 0.5 |  | 0.307 |  |  |  |  |  |  |  |  |  | 
NCI-H2228 | 1.2 | 1.21 | 1.48 | 0.474 | 0.448 | 0.138 | 0.179 | 0.214 | 0.145 | 0.139 | 1.23 | 1.29 | 1.26 | 0.363 | 0.422 |  |  |  |  | 
